We go through 6 compounds from ChEMBL document CHEMBL3865846, “Synthesis and biological evaluation of ricinoleic acid-based lipoamino acid derivatives” (Bioorg Med Chem Lett, 2016).

In brackets after ≈: the same amount, converted by molar mass.

Common to all, as to assay type: functional
The test system of assay [1] is Staphylococcus aureus. The assay can be described thus: Antimicrobial activity against Staphylococcus aureus MTCC96 measured after 24 hrs by well-diffusion method. To be noted: MTCC96, 24 h.
The test system of assay [2] is Bacillus subtilis. The assay can be described thus: Antimicrobial activity against Bacillus subtilis MTCC121 measured after 24 hrs by well-diffusion method. To be noted: MTCC121, 24 h. A general note: Agar diffusion results depend on both activity and mobility in agar.
The subject of assay [3] is Staphylococcus aureus. Briefly: Antimicrobial activity against Staphylococcus aureus MLS16 MTCC2940 measured after 24 hrs by well-diffusion method. Particulars: MLS16 MTCC2940, 24 h.
Assay [4] deals with Micrococcus luteus. The assay can be described thus: Antimicrobial activity against Micrococcus luteus MTCC2470 measured after 24 hrs by well-diffusion method. Particulars: MTCC2470, 24 h.
In another assay the test system is Raoultella planticola. Briefly: Antimicrobial activity against Klebsiella planticola MTCC530 measured after 24 hrs by well-diffusion method. To be noted: MTCC530, 24 h.
Another assay has as its system Escherichia coli. The assay can be described thus: Antimicrobial activity against Escherichia coli MTCC739 measured after 24 hrs by well-diffusion method. To be noted: MTCC739, 24 h.
The subject of another assay is Pseudomonas aeruginosa. The assay can be described thus: Antimicrobial activity against Pseudomonas aeruginosa MTCCM2453 measured after 24 hrs by well-diffusion method. To be noted: MTCCM2453, 24 h.
Assay [5] has as its system Candida albicans. Briefly: Antimicrobial activity against Candida albicans MTCC183 measured after 24 hrs by well-diffusion method. To be noted: MTCC183, 24 h.
The subject of assay [6] is Candida albicans. Briefly: Antimicrobial activity against Candida albicans MTCC227 measured after 24 hrs by well-diffusion method. To be noted: MTCC227, 24 h.
Assay [7] concerns Candida albicans. Briefly: Antimicrobial activity against Candida albicans MTCC854 measured after 24 hrs by well-diffusion method. To be noted: MTCC854, 24 h.
Assay [8] concerns Candida albicans. Briefly: Antimicrobial activity against Candida albicans MTCC3958 measured after 24 hrs by well-diffusion method. Particulars: MTCC3958, 24 h.
The subject of assay [9] is Candida albicans. Briefly: Antimicrobial activity against Candida albicans MTCC4748 measured after 24 hrs by well-diffusion method. Particulars: MTCC4748, 24 h.
Assay [10] has as its system Candida albicans. The assay can be described thus: Antimicrobial activity against Candida albicans MTCC1637 measured after 24 hrs by well-diffusion method. To be noted: MTCC1637, 24 h.
Assay [11] concerns Candida albicans. Briefly: Antimicrobial activity against Candida albicans MTCC3017 measured after 24 hrs by well-diffusion method. To be noted: MTCC3017, 24 h.
In assay [12] the test system is Candida albicans. Briefly: Antimicrobial activity against Candida albicans MTCC3018 measured after 24 hrs by well-diffusion method. To be noted: MTCC3018, 24 h.
Assay [13] concerns Candida albicans. Briefly: Antimicrobial activity against Candida albicans MTCC7315 measured after 24 hrs by well-diffusion method. To be noted: MTCC7315, 24 h.
Assay [14] relates to Staphylococcus aureus. The assay can be described thus: Bactericidal activity against Staphylococcus aureus MTCC96 measured after 24 hrs. To be noted: MTCC96, 24 h.
The test system of assay [15] is Bacillus subtilis. The assay can be described thus: Bactericidal activity against Bacillus subtilis MTCC121 measured after 24 hrs. To be noted: MTCC121, 24 h.
In assay [16] the test system is Staphylococcus aureus. The assay can be described thus: Bactericidal activity against Staphylococcus aureus MLS16 MTCC2940 measured after 24 hrs. To be noted: MLS16 MTCC2940, 24 h.
For assay [17], the system named is Micrococcus luteus. Briefly: Bactericidal activity against Micrococcus luteus MTCC2470 measured after 24 hrs. To be noted: MTCC2470, 24 h.

On to `CCCCCCC(C/C=C\CCCCCCCC(=O)OC)NC(=O)[C@@H](N)CC(C)C` (stereo partly specified), for which the MIC against Staphylococcus aureus [1], in the assay with Bacillus subtilis [2], against Staphylococcus aureus [3], with Micrococcus luteus [4], in the assay on Raoultella planticola and against Escherichia coli was over 125 µg/mL throughout. Further, the MIC in the assay on Pseudomonas aeruginosa, with Candida albicans [5], in the assay on Candida albicans [6], in the assay with Candida albicans [7], against Candida albicans [8] and with Candida albicans [9] was over 125 µg/mL in each case. Besides, the MIC in the assay on Candida albicans [10], against Candida albicans [11], against Candida albicans [12] and in the assay with Candida albicans [13] was over 125 µg/mL each time.
`CCCCCCC(C/C=C\CCCCCCCC(=O)OC)NC(=O)[C@@H](N)Cc1ccccc1` (stereo partly specified): the MIC with Staphylococcus aureus [1], against Bacillus subtilis [2], with Staphylococcus aureus [3], against Micrococcus luteus [4], against Raoultella planticola and against Escherichia coli was over 125 µg/mL in each case. Moreover, the MIC in the assay on Pseudomonas aeruginosa, in the assay with Candida albicans [5], in the assay with Candida albicans [6], in the assay with Candida albicans [7], against Candida albicans [8] and in the assay on Candida albicans [9] was over 125 µg/mL in each case. Further, the MIC in the assay with Candida albicans [10], in the assay with Candida albicans [11], against Candida albicans [12] and in the assay on Candida albicans [13] was over 125 µg/mL each time.
As for `CCCCCCC(C/C=C\CCCCCCCC(=O)OC)NC(=O)[C@@H](N)Cc1c[nH]c2ccccc12` (stereo partly specified), the MIC against Staphylococcus aureus [1], in the assay on Bacillus subtilis [2], with Staphylococcus aureus [3], in the assay with Micrococcus luteus [4], with Raoultella planticola and against Escherichia coli was over 125 µg/mL throughout. Besides, the MIC in the assay on Pseudomonas aeruginosa, in the assay with Candida albicans [5], against Candida albicans [6], with Candida albicans [7], in the assay with Candida albicans [8] and in the assay on Candida albicans [9] was over 125 µg/mL in each case. In addition, the MIC in the assay on Candida albicans [10], against Candida albicans [11], in the assay with Candida albicans [12] and in the assay with Candida albicans [13] was over 125 µg/mL each time.
Take `CCCCCCC(C/C=C\CCCCCCCC(=O)OC)NC(=O)[C@@H](N)C(C)C` (stereo partly specified): the MIC in the assay with Staphylococcus aureus [1], in the assay on Bacillus subtilis [2], with Staphylococcus aureus [3], against Micrococcus luteus [4], against Raoultella planticola and against Escherichia coli was over 125 µg/mL each time. Also, the minimum inhibitory concentration (MIC) in the assay with Pseudomonas aeruginosa, in the assay with Candida albicans [5], against Candida albicans [6], against Candida albicans [7], in the assay with Candida albicans [8] and against Candida albicans [9] was over 125 µg/mL each time. For the same compound, the MIC with Candida albicans [10], against Candida albicans [11], against Candida albicans [12] and against Candida albicans [13] was over 125 µg/mL throughout.
Take `CCCCCCC(C/C=C\CCCCCCCC(=O)OC)NC(=O)[C@@H](N)[C@@H](C)CC` (stereo partly specified): the MIC in the assay on Staphylococcus aureus [1], in the assay on Bacillus subtilis [2], with Staphylococcus aureus [3], in the assay on Micrococcus luteus [4], in the assay on Raoultella planticola and with Escherichia coli was over 125 µg/mL throughout. Further, the MIC with Pseudomonas aeruginosa, against Candida albicans [5], in the assay with Candida albicans [6], with Candida albicans [7], in the assay on Candida albicans [8] and against Candida albicans [9] was over 125 µg/mL throughout. The MIC with Candida albicans [10], against Candida albicans [11], in the assay on Candida albicans [12] and with Candida albicans [13] was over 125 µg/mL throughout.
For `O=C(O)c1cn(C2CC2)c2cc(N3CCNCC3)c(F)cc2c1=O` [CIPROFLOXACIN], the MIC against Staphylococcus aureus [1], with Bacillus subtilis [2], against Staphylococcus aureus [3], with Micrococcus luteus [4], against Raoultella planticola and in the assay with Escherichia coli was 0.9 µg/mL (≈ 2.72 µM) throughout. Further, the MIC (as a rule, the lowest concentration that inhibits growth of the organism) in the assay on Pseudomonas aeruginosa is 0.9 µg/mL (≈ 2.72 µM). In addition, the MBC in the assay with Staphylococcus aureus [14], in the assay on Bacillus subtilis [15], in the assay on Staphylococcus aureus [16] and with Micrococcus luteus [17] was 0.7 to 1.9 µg/mL (≈ 2.11 to 5.73 µM) in each case.
